Results taken from patent US20070173461A1, “Glycoside prodrug of 5-aminosalicylic acid” (Nippon Shinyaku Co., Ltd., priority 2004, published 2007).

Columns and labels:
[1] = Measurement of plasma concentration of 5-ASA (HPLC) after administration to rats; format: in vivo, rat; conditions: for Plasma concentration of 5-ASA after oral administration (in words, FIG. 1): rats, p.o., 50 mg/kg as 5-ASA
Method: To SD male rats at 7 weeks of age, 5-ASA was intravenously administered as a test drug, and the compound [1], the compound [2], the compound [3] or Pentasa ™ was orally administered at a dose of 50 mg/kg as5-ASA. The plasma concentration of 5-ASA was measured by high performance liquid chromatography (HPLC). As for Pentasa (registered trademark), granules obtained by pulverizing Pentasa (registered trademark) tablet were used.

[2] = Amount of 5-ASA in cecal, proximal colonic, distal colonic and rectal contents after oral administration; format: in vivo, rat; conditions: rats, p.o., 50 mg/kg as 5-ASA; compared with Pentasa and 5-ASA; FIGS. 2-5
Method: To SD male rats at 7 weeks of age, the compound [1], Pentasa ™ and 5-ASA were orally administered at a dose of 50 mg/kg as 5-ASA, and the contents in the cecum, the proximal colon, the distal colon and the rectum were homogenated and centrifuged. Then, the amount of 5-ASA in the respective sites of the large intestine was measured by high performance liquid chromatography (HPLC). As for Pentasa ™, granules obtained by pulverizing Pentasa ™ tablet were used.

TNBS-induced colitis = test: Trinitrobenzenesulfonic acid (TNBS)-induced colitis in rats; format: in vivo, rat; conditions: 3 days after TNBS, female SD rats
Method: To a female SD rat fasted for 24 hours, an aqueous solution of TNBS/50% ethanol (30 mg/0.25 ml/rat) was administered in the colon at 8 cm from the anus using a probe for oral administration under pentobarbital anesthesia to induce colitis. At 3 days after the administration of TNBS, the colon was excised, and the wet weight of the colon of 8 cm long from the anus was weighed. The degree of colitis onset was scored in accordance with the method of Wallace et al. (Gastroenterology 96, 29-36 (1989)). As the test compounds, Pentasa ™ at doses of 30 mg/kg and 100 mg/kg and compound [1] at doses of 61.8 mg/kg and 205.9 mg/kg (corresponding to 30 mg/kg and 100 mg/kg in terms of 5-ASA) were orally administered twice a day (on the day of TNBS administration, once at 4 hours before TNBS administration). Pentasa ™ was administered as granules obtained by pulversing Pentasa ™ tablet.

[3] = Concentration of 5-ASA in colonic tissue and rectal tissue after oral administration; format: in vivo, rat; conditions: rats, p.o., 50 mg/kg as 5-ASA; FIGS. 6 and 7
Method: Further, the compound [2] and Pentasa ™ were orally administered at a dose of 50 mg/kg as 5-ASA, and the colon and the rectum were homogenated and centrifuged. Then, the concentrations of 5-ASA in the colonic tissue and the rectal tissue were measured by high performance liquid chromatography (HPLC). As for Pentasa ™, granules obtained by pulverizing Pentasa ™ tablet were used.

[4] = rat, in vivo; cited from earlier work

**Q.** For `Nc1ccc(O)c(C(=O)O)c1` [Compound 5-ASA, 5-Aminosalicylic acid], which AUC ([1]; rat, iv, plasma 5-ASA, SD male rats, i.v., 1 mg/kg, read-out: Area under the curve of concentration (AUC)) is on record?
**A.** Its AUC is 1420 ng·h/mL.

**Q.** Which “Plasma concentration of 5-ASA after oral administration (in words, FIG. 1)” value (shortened to “Plasma concentration of 5-ASA”) [1] does the source give for `Nc1ccc(O[C@@H]2O[C@H](CO)[C@H](O)[C@H](O)[C@H]2O)c(C(=O)O)c1` [Compound [1], 5-amino-2-(β-D-galactopyranosyloxy)benzoic acid] here?
**A.** The value was “remained low as compared with those of Pentasa”.

**Q.** And the “Amount of 5-ASA in the respective sites of the large intestine (cecum, proximal colon, distal colon, rectum contents)” value [2]?
**A.** Its value is “highest value”.

**Q.** What about the Damage score (TNBS-induced colitis; 61.8 mg/kg (corresponding to 30 mg/kg as 5-ASA) p.o. twice a day) of the same compound?
**A.** Its Damage score is “significantly reduced”.

**Q.** What about the “Increase of the wet weight of the colon” value (TNBS-induced colitis; 205.9 mg/kg (corresponding to 100 mg/kg as 5-ASA) p.o. twice a day) of the same compound?
**A.** The value was “inhibited the increase of the wet weight of the colon significantly”.

**Q.** For `Nc1ccc(O[C@H]2O[C@H](CO)[C@H](O)[C@H](O)[C@H]2O)c(C(=O)O)c1` [[2], 5-amino-2-(α-D-galactopyranosyloxy)benzoic acid], which “Plasma concentration of 5-ASA” value [1] is on record?
**A.** The value was “remained low as compared with those of Pentasa”.

**Q.** What about the “Concentrations of 5-ASA in the colonic tissue and the rectal tissue” value [3] of the same compound?
**A.** The value was “higher as compared with Pentasa”.

**Q.** With `Nc1ccc(O[C@@H]2O[C@H](CO)[C@@H](O)[C@H](O)[C@H]2O)c(C(=O)O)c1` [[3], 5-amino-2-(β-D-glucopyranosyloxy)benzoic acid] as the compound, how does the “Plasma concentration of 5-ASA” value [1] read?
**A.** The value was “remained low as compared with those of Pentasa”.

**Q.** With `C[C@@H]1C[C@H]2[C@@H]3CCC4=CC(=O)C=C[C@]4(C)[C@@]3(F)[C@@H](O)C[C@]2(C)[C@@]1(O)C(=O)COC1O[C@H](CO)[C@@H](O)[C@H](O)[C@H]1O` (stereo partly drawn) [glucose derivative of dexamethasone] as the compound, how does the “Fraction delivered to the cecum” value [4] read?
**A.** Its value is 60%.
